These results are taken from patent EP0493782A2, “Novel dihydropyridine amides, process for their preparation and drugs containing them” (BAYER AG, priority 1991, dated 1992).

The subject of this experiment is ANP-System. Nature of the experiment: Acute hypervolaemia model in the rat (volume load, urine collected over one hour). The experiment is classed as in vivo. Conditions: Ratte; for Steigerung der Na⁺-Ausscheidung: 10 mg/kg p.o. in Tylose-Suspension, acute volume load by 15 ml/kg physiological saline into the tail vein, urine collected over one hour. From the text:
Die ausgewählten erfindungsgemäßen Verbindungen zeigen ein nicht vorhersehbares, wertvolles pharmakologisches Wirkspektrum. Im Vergleich zu strukturähnlichen, bekannten Dihydropyridinen wie z.B. in DOS 2 228 377 beschriebenen Vertretern, zeigen die erfindungsgemäßen Verbindungen sowohl quantitativ als auch qualitativ ein anderes Wirkungsspektrum. Neben ihrer calciumantagonistischen Wirkung steigern sie die ANP-abhängige Natriurese bei Stimulation des ANP-Systems durch Volumenbelastung. Diese zusätzliche Wirkkomponente wurde in einem Modell der akuten Hypervolämie an der Ratte nachgewiesen: Die Testsubstanzen wurden oral in Tylose-Suspension verabreicht. Durch Injektion von 15 ml/kg physiologischer Kochsalzlösung in die Schwanzvene wurde eine akute Volumenbelastung ausgelöst und anschließend der Urin über eine Stunde gesammelt. Unerwarteterweise verstärken die erfindungsgemäßen Verbindungen die Natriumausscheidung. Gleichzeitig wird die Ausscheidung von cGMP, das einen spezifischen Marker für die Aktivierung des ANP-Systems darstellt, erhöht (z.B. um 100 % bei Beispiel 19).

Consider `COC(=O)C1=C(C)NC(C)=C(C(=O)NC2CC2)C1c1ccccc1OCCCOc1ccccc1` (stereo not shown) [Beispiel 2], for which the “Steigerung der Na⁺-Ausscheidung” value turned out to be 80%.

As to `COC(=O)C1=C(C)NC(C)=C(C(=O)NC2CCCC2)C1c1ccccc1OC` (stereo not shown) [Beispiel 11], the “Steigerung der Na⁺-Ausscheidung” value stood at 95%.

As to `COC(=O)C1=C(C)NC(C)=C(C(=O)NC2CC2)C1c1ccccc1OC(F)(F)F` (stereo not shown) [Beispiel 19], the “Steigerung der Na⁺-Ausscheidung” value worked out at 100%. Also, the “Ausscheidung von cGMP erhöht” value (oral in Tylose-Suspension, acute volume load by 15 ml/kg saline i.v., urine over one hour, dose not given) is 100%.
